Experimental data published in ChEMBL document CHEMBL1201862, “PubChem BioAssay data set” (2004).
Calls of active or inactive are those of the source.

Assays:
[1] = target: T1, Polyadenylate-binding protein 1 (Homo sapiens, UniProt P11940); test: PABP1 MLLE–PAM2 binding inhibitor potency, dose response, biochemical, fluorescence polarization, FITC-PAM2 peptide (AID 602259); type: functional; conditions: read-out: IC50_Mean
Vero [2] = test: Vero cell cytotoxicity, cytotoxicity control for flavivirus capping enzyme inhibitors (AID 588742); type: functional; conditions: Chlorocebus sabaeus
[3] = target: Dual specificity tyrosine-phosphorylation-regulated kinase 1A (Rattus norvegicus, UniProt Q63470); type: biochemical, Homo sapiens
[4] = target: T1, Polyadenylate-binding protein 1; test: PABP1 MLLE–PAM2 interaction inhibitors, dose response, miRNA deadenylation inhibitor project, biochemical, fluorescence polarization, Cy5-PAM2 peptide, secondary (AID 602260); type: functional; conditions: read-out: IC50_Mean
Vero [5] = test: cells; type: functional; conditions: Chlorocebus sabaeus
Vero [6] = test: cells; type: functional, cell-based; conditions: Chlorocebus sabaeus
[7] = target: T2, Tyrosine-protein phosphatase non-receptor type 22 (Homo sapiens, UniProt Q9Y2R2); type: functional
T2 sequence (Q9Y2R2 whole entry): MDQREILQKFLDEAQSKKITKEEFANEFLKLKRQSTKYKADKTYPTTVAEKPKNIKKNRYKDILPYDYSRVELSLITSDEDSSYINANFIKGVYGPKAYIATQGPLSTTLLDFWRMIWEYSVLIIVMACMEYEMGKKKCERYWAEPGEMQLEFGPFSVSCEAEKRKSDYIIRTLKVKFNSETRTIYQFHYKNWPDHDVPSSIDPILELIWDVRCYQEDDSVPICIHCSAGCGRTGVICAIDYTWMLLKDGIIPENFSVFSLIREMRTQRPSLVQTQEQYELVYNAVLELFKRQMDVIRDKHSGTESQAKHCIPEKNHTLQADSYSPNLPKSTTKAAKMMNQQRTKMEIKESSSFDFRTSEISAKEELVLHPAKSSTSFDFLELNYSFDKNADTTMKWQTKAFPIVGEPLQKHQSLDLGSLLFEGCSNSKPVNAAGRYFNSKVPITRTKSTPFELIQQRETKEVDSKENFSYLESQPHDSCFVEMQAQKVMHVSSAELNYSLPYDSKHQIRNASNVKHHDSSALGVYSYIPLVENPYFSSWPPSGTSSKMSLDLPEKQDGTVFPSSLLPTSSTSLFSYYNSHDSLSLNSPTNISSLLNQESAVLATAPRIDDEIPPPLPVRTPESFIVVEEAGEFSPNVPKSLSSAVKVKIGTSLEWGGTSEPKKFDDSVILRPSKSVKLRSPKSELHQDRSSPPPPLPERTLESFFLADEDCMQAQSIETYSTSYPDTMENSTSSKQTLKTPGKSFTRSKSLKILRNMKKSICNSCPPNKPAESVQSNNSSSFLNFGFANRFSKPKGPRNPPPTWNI

[8] = Luminescence Cell-Based Dose Confirmation HTS to Identify Activators of 5'UTR Stem-Loop Driven Alpha-Synuclein mRNA Translation in H4 Neuroglioblastoma Cells. [Related pubchem assays: 1829 (Project Summary), 1814 (Primary HTS)]; type: functional
[9] = Luminescence Cell-Based Dose Response HTS to Identify Activators of Luciferase Translation or Activity in H4 […] Cells. [Related pubchem assays: 1829 (Project Summary), 1814 (Primary HTS)]; type: functional
[10] = Luminescence Cell-Based Dose Confirmation to Identify Activators of 5'UTR Stem-Loop Driven Alpha-Synuclein mRNA Translation in H4 Neuroglioblastoma Cells. [Related pubchem assays: 1829 (Project Summary), 1814 (Primary HTS)]; type: functional
[11] = target: T3, Tyrosine-protein phosphatase non-receptor type 7 (Homo sapiens, UniProt P35236); type: functional
T3 sequence (P35236 whole entry): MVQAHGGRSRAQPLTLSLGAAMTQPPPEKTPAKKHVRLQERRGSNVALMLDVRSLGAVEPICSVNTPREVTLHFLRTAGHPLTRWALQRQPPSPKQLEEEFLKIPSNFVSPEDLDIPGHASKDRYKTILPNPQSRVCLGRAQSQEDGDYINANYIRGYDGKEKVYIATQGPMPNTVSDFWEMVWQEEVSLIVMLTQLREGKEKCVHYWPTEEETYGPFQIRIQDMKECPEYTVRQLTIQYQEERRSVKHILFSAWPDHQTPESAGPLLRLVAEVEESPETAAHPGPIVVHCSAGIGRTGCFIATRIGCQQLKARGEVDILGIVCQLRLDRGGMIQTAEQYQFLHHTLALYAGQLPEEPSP

[12] = target: T2, Tyrosine-protein phosphatase non-receptor type 22; type: functional; remark: listed apart in the source
H4 = test: Luminescence Cell-Based Dose Response HTS to Identify Activators of 5'UTR Stem-Loop Driven Prion Protein mRNA Translation in H4 Neuroglioblastoma Cells. [Related pubchem assays: 1829 (Project Summary), 1814 (Primary HTS)]; type: functional; conditions: Homo sapiens
[13] = Luminescence Cell-Based Dose Response to Identify Activators of 5'UTR Stem-Loop Driven Prion Protein mRNA Translation in H4-C Neuroglioblastoma Cells. [Related pubchem assays: 1829 (Project Summary), 1814 (Primary HTS)]; type: functional
[14] = Luminescence Cell-Based Dose Response to Identify Activators of Luciferase Translation or Activity in H4-C Neuroglioblastoma Cells. [Related pubchem assays: 1829 (Project Summary), 1814 (Primary HTS)]; type: functional
HeLa = test: HeLa cell cytotoxicity, dose response, cytotoxicity control for MITF activator project, CellTiter-Glo luminescence, cherry-pick samples (AID 540259); type: functional, cell-based; conditions: Homo sapiens
[15] = HEp-2 cell cytotoxicity, dose response, cytotoxicity control for RSV inhibitor project, HTS (AID 2410); type: functional; conditions: human respiratory syncytial virus
Fatty acid synthase [16] = target: T4, Fatty acid synthase (Homo sapiens, UniProt P49327); test: FAS thioesterase domain inhibitors, dose response, biochemical, kinetic fluorescence intensity (AID 624326); type: functional;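 further: rate of fluorescence rise from hydrolysis of a fluorogenic O-methyl fluorescein ester substrate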
T4 sequence (P49327 whole entry, the tested form may be a part): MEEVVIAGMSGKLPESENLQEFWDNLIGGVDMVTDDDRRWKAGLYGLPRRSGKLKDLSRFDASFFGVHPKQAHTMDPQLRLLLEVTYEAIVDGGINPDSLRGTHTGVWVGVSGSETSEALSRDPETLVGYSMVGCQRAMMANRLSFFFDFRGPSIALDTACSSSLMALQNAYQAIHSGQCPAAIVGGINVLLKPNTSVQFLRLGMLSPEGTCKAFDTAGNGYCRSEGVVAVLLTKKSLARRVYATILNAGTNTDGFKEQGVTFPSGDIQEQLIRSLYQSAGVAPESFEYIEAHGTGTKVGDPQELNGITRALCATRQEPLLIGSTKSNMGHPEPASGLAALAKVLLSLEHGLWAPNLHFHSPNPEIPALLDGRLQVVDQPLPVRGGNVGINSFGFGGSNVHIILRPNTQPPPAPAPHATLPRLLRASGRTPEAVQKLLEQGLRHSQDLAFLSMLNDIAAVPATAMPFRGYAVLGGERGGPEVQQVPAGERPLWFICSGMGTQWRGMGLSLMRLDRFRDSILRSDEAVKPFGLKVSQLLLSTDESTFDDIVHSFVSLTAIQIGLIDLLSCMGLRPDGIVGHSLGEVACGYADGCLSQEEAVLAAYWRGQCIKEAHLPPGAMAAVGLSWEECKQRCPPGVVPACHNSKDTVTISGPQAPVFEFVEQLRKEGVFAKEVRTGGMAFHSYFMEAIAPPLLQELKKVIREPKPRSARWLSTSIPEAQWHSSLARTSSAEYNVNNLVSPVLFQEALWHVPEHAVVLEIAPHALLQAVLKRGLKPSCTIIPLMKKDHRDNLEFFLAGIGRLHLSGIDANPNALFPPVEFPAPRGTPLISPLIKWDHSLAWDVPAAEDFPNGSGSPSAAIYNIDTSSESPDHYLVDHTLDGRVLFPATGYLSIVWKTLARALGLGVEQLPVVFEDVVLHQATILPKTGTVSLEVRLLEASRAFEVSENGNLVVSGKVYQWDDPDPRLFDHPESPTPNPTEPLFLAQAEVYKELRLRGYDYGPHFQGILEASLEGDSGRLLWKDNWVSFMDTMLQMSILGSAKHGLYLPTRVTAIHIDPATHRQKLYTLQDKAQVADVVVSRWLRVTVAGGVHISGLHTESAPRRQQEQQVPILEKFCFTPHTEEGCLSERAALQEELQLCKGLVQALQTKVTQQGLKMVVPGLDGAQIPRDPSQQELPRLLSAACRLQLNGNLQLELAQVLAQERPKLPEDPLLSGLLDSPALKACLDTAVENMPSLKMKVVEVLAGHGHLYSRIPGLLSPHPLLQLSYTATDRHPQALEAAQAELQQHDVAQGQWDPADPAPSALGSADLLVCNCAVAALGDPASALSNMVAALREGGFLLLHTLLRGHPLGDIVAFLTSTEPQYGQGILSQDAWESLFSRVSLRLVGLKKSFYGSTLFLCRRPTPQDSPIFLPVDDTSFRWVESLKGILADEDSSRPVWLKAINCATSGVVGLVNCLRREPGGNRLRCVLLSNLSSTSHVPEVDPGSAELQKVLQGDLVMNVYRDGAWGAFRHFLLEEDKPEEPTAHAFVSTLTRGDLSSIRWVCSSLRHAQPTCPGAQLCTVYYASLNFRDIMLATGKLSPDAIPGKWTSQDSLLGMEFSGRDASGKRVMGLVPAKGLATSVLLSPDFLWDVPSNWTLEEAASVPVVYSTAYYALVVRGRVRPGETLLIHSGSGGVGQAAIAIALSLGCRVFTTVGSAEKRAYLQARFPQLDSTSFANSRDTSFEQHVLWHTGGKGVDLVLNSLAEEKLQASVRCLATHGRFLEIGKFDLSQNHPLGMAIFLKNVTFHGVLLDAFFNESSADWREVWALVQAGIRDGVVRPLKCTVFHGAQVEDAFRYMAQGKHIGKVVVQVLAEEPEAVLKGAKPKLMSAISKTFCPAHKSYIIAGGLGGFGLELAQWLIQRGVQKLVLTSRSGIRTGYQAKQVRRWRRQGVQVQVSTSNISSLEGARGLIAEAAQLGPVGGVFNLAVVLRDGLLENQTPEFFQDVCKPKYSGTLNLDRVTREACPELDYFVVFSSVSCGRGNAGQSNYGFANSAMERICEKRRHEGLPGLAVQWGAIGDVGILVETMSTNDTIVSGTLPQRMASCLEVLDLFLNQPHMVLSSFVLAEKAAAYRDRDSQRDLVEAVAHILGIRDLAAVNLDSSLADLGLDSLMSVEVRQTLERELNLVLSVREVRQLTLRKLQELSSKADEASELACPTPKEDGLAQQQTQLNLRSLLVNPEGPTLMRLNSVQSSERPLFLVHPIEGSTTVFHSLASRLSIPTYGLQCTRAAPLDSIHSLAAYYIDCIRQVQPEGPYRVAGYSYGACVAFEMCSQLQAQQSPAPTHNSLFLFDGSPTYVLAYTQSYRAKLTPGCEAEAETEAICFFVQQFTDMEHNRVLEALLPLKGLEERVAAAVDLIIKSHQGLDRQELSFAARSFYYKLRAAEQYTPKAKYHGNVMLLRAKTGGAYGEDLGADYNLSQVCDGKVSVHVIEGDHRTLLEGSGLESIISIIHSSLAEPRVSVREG

Streptococcus = test: Group A Streptococcus viability loss, dose response, counter-screen for streptokinase expression inhibitor project, luminescence, BacTiterGlo (AID 1915); type: functional, organism-based;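 further: potency for reduction of bacterial viability or growth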
[17] = target: FAD-linked sulfhydryl oxidase ALR (Homo sapiens, UniProt P55789); test: inhibitors of human ALR sulfhydryl oxidase, dose response, biochemical, H2O2 detection, luminescence, cherry-pick (AID 493248)
FAD-linked sulfhydryl oxidase ALR, sequence (P55789 whole entry): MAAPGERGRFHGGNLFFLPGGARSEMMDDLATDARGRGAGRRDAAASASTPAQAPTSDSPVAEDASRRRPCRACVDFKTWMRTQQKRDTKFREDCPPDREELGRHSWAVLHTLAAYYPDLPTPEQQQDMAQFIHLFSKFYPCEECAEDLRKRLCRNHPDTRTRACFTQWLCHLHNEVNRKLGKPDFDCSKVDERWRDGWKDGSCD

[18] = system: Streptococcus sp. 'group A'; test: growth inhibition of control SK(-) GAS strain, dose response, counter-screen for streptokinase expression inhibitor project, luminescence, kanamycin, BacTiterGlo, confirmation (AID 1900); type: functional, organism-based
Fatty acid synthase [19] = target: T4, Fatty acid synthase; test: FAS thioesterase domain inhibitors, dose response, biochemical, endpoint fluorescence intensity, uHTS hits (AID 624327); type: functional;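 further: fluorescence from hydrolysis of an O-methyl fluorescein acyl ester substrate by the enzyme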
Streptokinase A = target: T5, Streptokinase A (Streptococcus pyogenes serotype M1, UniProt P10520); test: S. pyogenes streptokinase expression inhibitors, potency, dose response, plasminogen activation absorbance, OD405 (AID 1914); type: functional, Streptococcus pyogenes M1 GAS;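 further: secreted streptokinase activity via plasminogen activation per viability signal from cell pellet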
T5 sequence (P10520 whole entry): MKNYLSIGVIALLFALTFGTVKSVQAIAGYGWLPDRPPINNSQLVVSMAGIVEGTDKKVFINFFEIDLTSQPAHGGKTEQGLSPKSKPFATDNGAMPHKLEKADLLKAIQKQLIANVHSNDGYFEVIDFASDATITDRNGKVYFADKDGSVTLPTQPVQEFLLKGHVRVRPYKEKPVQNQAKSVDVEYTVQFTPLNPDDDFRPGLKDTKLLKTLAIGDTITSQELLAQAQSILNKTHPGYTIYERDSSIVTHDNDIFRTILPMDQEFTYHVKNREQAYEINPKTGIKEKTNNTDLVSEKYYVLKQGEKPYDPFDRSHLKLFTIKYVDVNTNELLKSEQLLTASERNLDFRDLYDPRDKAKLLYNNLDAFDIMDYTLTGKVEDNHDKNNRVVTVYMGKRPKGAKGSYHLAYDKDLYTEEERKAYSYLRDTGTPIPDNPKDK

[20] = target: Induced myeloid leukemia cell differentiation protein Mcl-1 (Homo sapiens, UniProt Q07820); type: functional
Induced myeloid leukemia cell differentiation protein Mcl-1, sequence (Q07820 whole entry): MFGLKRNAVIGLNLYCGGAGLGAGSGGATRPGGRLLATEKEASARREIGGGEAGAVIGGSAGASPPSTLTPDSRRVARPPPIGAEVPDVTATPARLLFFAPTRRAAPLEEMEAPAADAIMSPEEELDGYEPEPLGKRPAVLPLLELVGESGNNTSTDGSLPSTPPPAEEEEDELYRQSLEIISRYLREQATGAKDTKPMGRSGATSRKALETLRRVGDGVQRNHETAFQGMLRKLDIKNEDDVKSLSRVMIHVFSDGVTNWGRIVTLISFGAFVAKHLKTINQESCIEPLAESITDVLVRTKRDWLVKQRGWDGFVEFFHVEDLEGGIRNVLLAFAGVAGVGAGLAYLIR

T1 sequence (P11940 whole entry): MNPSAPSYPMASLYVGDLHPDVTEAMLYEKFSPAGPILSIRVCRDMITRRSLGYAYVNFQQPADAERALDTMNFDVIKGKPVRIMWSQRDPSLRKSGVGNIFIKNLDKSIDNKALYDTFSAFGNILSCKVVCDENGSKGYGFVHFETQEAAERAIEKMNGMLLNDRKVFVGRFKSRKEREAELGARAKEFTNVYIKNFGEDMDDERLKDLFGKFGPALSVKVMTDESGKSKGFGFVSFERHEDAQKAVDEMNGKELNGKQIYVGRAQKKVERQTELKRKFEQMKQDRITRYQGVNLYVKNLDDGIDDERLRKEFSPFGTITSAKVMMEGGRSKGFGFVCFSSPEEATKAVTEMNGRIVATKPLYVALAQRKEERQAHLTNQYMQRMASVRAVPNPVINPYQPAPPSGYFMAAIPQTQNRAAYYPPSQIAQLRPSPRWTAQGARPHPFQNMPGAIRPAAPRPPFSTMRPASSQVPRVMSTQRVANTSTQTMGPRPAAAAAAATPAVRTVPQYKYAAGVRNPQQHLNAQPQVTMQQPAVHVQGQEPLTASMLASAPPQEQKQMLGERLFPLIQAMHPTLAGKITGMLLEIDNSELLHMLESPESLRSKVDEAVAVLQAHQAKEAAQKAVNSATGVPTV

Compound: Fc1ccccc1N=C(S)Nc1cccc2cnccc12
- IC50 [1]: > 66 µM (inactive)
- CC50 (Vero [2]): > 40 µM (active)
- AC50 [3]: 5.56 µM (active)
- IC50 [4]: > 66 µM (inactive)

Compound: CN(C)CC1CCC/C(=C\c2ccc(OC(=O)/C=C/c3ccc(Cl)c(Cl)c3)cc2)C1=O (stereo not drawn)
- CC50 (Vero [5]): 11.5 µM (active)
- IC50 (Vero [6]): > 25 µM (active)

Compound: CCCCCOc1ccc(CN2CCOCC2)cc1Cl
- IC50 [7]: > 79.4 µM (inactive)
- EC50 [8]: < 0.1 µM (active)
- EC50 [9]: < 0.1 µM (inconclusive)
- EC50 [10]: 0.731 µM (active)
- IC50 [11]: > 79.4 µM (inactive)
- IC50 [12]: > 79.4 µM (inactive)
- EC50 (H4): 35.5 µM (active)
- EC50 [13]: 1.3 µM (active)
- EC50 [14]: 1.05 µM (active)

Compound: CCCCc1nc2cc(C(=O)N3CCN(c4nc(C)cnc4C)CC3)ccc2o1
- AC50 (HeLa): 47.3 µM (active)

Compound: Cc1ccc(-c2nc(CCN3C(=O)c4ccccc4C3=O)cs2)cc1
- IC50 (cells): 47.1 µM (active)
- IC50 (Vero [6]): > 25 µM (active)

Compound: CSc1nnc2c3ccccc3n(CCc3ccccc3)c2n1
- IC50 (Vero [6]): > 12.5 µM (active)
- CC50 [15]: > 50 µM (active)

Compound: C/C(=N\Nc1ccc(C(=O)O)cc1)c1ccc2c(c1)Nc1ccccc1S2
- IC50 (Fatty acid synthase [16]): 6.48 µM (active)
- EC50 (Streptococcus): 7.08 µM (active)
- AC50 [17]: 0.013 µM (active)
- EC50 [18]: 3.9 µM (active)
- IC50 (Fatty acid synthase [19]): 11.7 µM (active)
- EC50 (Streptokinase A): > 150 µM (not active)
- AC50 (HeLa): 48.5 µM (active)
- IC50 [20]: 36 µM (active)
